Measured values from patent US12637453B2, “Pyrazolopyridine inhibitors of c-Jun-n-Terminal kinases and uses thereof” (Dana-Farber Cancer Institute, Inc., priority 2019, dated 2026).

Legend:
Format in all cases: biochemical
[1] = target: JNK2 (Homo sapiens, UniProt P45984); assay: IC50 assay for JNK kinase inhibition, JNK2
[2] = target: JNK1 (Homo sapiens, UniProt P45983); assay: IC50 assay for JNK kinase inhibition, JNK1
[3] = target: JNK3 (Homo sapiens, UniProt P53779); assay: IC50 assay for JNK kinase inhibition, JNK3
Sequence of JNK3 (P53779 whole entry): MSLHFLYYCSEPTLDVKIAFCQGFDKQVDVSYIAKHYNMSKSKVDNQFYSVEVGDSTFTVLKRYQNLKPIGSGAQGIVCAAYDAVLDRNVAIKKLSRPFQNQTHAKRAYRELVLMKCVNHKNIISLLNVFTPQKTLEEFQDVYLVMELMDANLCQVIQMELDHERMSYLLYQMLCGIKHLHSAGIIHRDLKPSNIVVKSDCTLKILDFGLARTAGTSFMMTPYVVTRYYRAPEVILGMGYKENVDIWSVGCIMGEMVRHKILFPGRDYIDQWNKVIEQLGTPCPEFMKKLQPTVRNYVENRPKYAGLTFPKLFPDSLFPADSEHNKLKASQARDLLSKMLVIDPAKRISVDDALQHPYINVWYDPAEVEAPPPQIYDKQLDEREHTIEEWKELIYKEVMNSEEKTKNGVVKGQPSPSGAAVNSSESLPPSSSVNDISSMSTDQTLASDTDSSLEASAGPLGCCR

Sequence of JNK1 (P45983 whole entry): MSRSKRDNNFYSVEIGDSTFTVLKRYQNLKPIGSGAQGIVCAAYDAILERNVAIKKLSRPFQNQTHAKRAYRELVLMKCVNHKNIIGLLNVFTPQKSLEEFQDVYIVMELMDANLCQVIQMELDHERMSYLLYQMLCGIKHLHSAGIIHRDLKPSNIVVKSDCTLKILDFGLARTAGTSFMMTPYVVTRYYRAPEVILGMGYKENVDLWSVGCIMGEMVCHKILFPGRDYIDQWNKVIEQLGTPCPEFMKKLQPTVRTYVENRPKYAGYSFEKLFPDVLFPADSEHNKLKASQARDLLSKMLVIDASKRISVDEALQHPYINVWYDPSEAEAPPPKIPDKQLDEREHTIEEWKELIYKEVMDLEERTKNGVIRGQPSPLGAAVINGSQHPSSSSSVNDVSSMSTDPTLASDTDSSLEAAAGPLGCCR
Sequence of JNK2 (P45984 whole entry): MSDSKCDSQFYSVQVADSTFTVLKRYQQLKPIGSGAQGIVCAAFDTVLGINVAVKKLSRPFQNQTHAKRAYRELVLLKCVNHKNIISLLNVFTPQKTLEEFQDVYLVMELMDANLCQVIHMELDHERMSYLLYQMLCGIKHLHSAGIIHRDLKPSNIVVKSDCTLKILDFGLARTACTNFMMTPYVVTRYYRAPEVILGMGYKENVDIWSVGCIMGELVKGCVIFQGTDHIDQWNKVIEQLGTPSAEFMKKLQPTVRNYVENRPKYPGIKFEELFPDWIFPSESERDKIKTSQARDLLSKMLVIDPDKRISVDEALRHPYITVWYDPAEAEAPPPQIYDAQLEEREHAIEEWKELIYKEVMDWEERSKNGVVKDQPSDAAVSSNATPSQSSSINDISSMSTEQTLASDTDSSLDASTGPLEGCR

IC50 [1] | IC50 [2] | IC50 [3] | SMILES
67.6 nM | 8.9 nM | 10.3 nM | CN(C)C/C=C/C(=O)Nc1ccc(C(=O)N2CC[C@H](Nc3nccc(-c4c(-c5ccc(Cl)cc5)nn5ccccc45)n3)C2)cc1 [I-26, (S,E)-N-(4-(3-((4-(2-(4-chlorophenyl)pyrazolo[1,5-a]pyridin-3-yl)pyrimidin-2-yl)amino)pyrrolidine-1-carbonyl)phenyl)-4-(dimethylamino)but-2-enamide]
99.5 nM | 2600 nM | 790 nM | C[C@H]1CN(C(=O)c2ccc(NC(=O)CCCN(C)C)cc2)C[C@H]1Nc1nccc(-c2c(-c3ccccc3)nn3ccccc23)n1 [I-27, 4-(dimethylamino)-N-(4-((3S,4S)-3-methyl-4-((4-(2-phenylpyrazolo[1,5-a]pyridin-3-yl)pyrimidin-2-yl)amino)pyrrolidine-1-carbonyl)phenyl)butanamide]
85.8 nM | 2390 nM | 274 nM | Cc1ccc2c(-c3ccnc(N[C@@H]4CN(C(=O)c5ccc(NC(=O)/C=C/CN(C)C)cc5)C[C@@H]4C)n3)c(-c3ccccc3)nn2c1 [I-31, (E)-4-(dimethylamino)-N-(4-((3S,4S)-3-methyl-4-((4-(6-methyl-2-phenylpyrazolo[1,5-a]pyridin-3-yl)pyrimidin-2-yl)amino)pyrrolidine-1-carbonyl)phenyl)but-2-enamide]
222 nM | 1810 nM | > 3330 nM | COc1cccn2nc(-c3ccccc3)c(-c3ccnc(N[C@@H]4CN(C(=O)c5ccc(NC(=O)/C=C/CN(C)C)cc5)C[C@@H]4C)n3)c12 [I-32, (E)-4-(dimethylamino)-N-(4-((3S,4S)-3-((4-(4-methoxy-2-phenylpyrazolo[1,5-a]pyridin-3-yl)pyrimidin-2-yl)amino)-4-methylpyrrolidine-1-carbonyl)phenyl)but-2-enamide]
